Patent publication US9545105B2, “1-(heterocyclic carbonyl) piperidines” (BAYER INTELLECTUAL PROPERTY GMBH, priority 2010, dated 2017)

Each compound was assayed on Sphaerotheca fuliginea (assay: In vivo preventive test on Sphaerotheca fuliginea (cucumber)). Settings: 500 ppm of active ingredient, evaluated 7 days after inoculation.
How it was run: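 Active compound in DMF with alkylarylpolyglycolether emulsifier, diluted in water and sprayed on young cucumber plants at the stated rate. One day later, plants inoculated with S. fuliginea spore suspension and kept at about 23 °C, 70% RH; efficacy scored 7 days post-inoculation, 0% = untreated, 100% = no disease.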

Going from `CCC(c1ccccc1)C1CCCCN1C(=O)c1c(C(F)F)nn(C)c1F` (stereo not drawn) [Example 136] to `CCC(c1ccccc1)C1CCCCN1C(=S)c1c(C(F)F)nn(C)c1F` (stereo not drawn) [Example 140], the Efficacy rises from 98% to 100%.

`Cc1cc(C)cc(C2CCCCN2C(=O)c2c(C)nn(C)c2F)c1` (stereo not drawn) [Example 10] and `CCc1nn(C)c(F)c1C(=O)N1CCCCC1c1cc(C)cc(C)c1` (stereo not drawn) [Example 11] are the same in Efficacy: 95% for the first, 95% for the second.

Each compound was assayed on Phakopsora pachyrhizi (assay: In vivo protective test on Phakopsora pachyrhizi (soybeans)). Settings: 250 ppm of active ingredient, evaluated 11 days after inoculation.

First: Cc1cc(C)cc(C2CCCCN2C(=O)c2c(C)nn(C)c2F)c1 (stereo not drawn) [Example 10]
Second: CCc1nn(C)c(F)c1C(=O)N1CCCCC1c1cc(C)cc(C)c1 (stereo not drawn) [Example 11]
The Efficacy of the first is higher: 98% for the first, 96% for the second.

Each compound was assayed on Venturia inaequalis (assay: In vivo preventive test on Venturia inaequalis (apple scab)). Settings: 100 ppm of active ingredient, evaluated 10 days after inoculation.
Procedure: Solvent: 24.5 parts by weight of acetone • 24.5 parts by weight of N,N-dimethylacetamide Emulsifier: 1 part by weight of alkylaryl polyglycol ether To produce a suitable preparation of active compound, 1 part by weight of active compound is mixed with the stated amounts of solvent and emulsifier, and the concentrate is diluted with water to the desired concentration. To test for preventive activity, young plants are sprayed with the preparation of active compound at the stated rate of application. After the spray coating has dried on, the plants are inoculated with an aqueous conidia suspension of the causal agent of apple scab (Venturia inaequalis) and then remain for 1 day in an incubation cabinet at approximately 20° C. and a relative atmospheric humidity of 100%. The plants are then placed in a greenhouse at approximately 21° C. and a relative atmospheric humidity of approximately 90%. The test is evaluated 10 days after the inoculation. 0% means an efficacy which corresponds to that of the untreated control, while an efficacy of 100% means that no disease is observed.

Going from `CCc1nn(C)c(F)c1C(=O)N1CCCCC1c1ccc(Cl)cc1` (stereo not drawn) [Example 54] to `CCc1nn(C)c(F)c1C(=O)N1CCCCC1c1cc(C)cc(C)c1` (stereo not drawn) [Example 11], the Efficacy rises from 98% to 100%.

`CCC(c1ccccc1)C1CCCCN1C(=O)c1c(C(F)F)nn(C)c1F` (stereo not drawn) [Example 136] and `CCC(c1ccccc1)C1CCCCN1C(=S)c1c(C(F)F)nn(C)c1F` (stereo not drawn) [Example 140] are the same in Efficacy: 100% for the first, 100% for the second.

In the case of `Cc1cc(C)cc(C2CCCCN2C(=O)c2c(C)nn(C)c2F)c1` (stereo not drawn) [Example 10], the Efficacy is reported as 100%.

Each compound was assayed on Fusarium nivale (var. majus) (assay: In vivo preventive test on Fusarium nivale (wheat)). Settings: 500 ppm of active ingredient, evaluated 5 days after inoculation.
Procedure: Solvent: 49 parts by weight of N,N-dimethylacetamide Emulsifier: 1 part by weight of alkylaryl polyglycol ether To produce a suitable preparation of active compound, 1 part by weight of active compound or active compound combination is mixed with the stated amounts of solvent and emulsifier, and the concentrate is diluted with water to the desired concentration. To test for preventive activity, young plants are sprayed with the preparation of active compound or active compound combination at the stated rate of application. After the spray coating has been dried, the plants are slightly injured by using a sandblast and afterwards they are sprayed with a conidia suspension of Fusarium nivale (var. majus). The plants are placed in the greenhouse under a translucent incubation cabinet at a temperature of approximately 10° C. and a relative atmospheric humidity of approximately 100%. The test is evaluated 5 days after the inoculation. 0% means an efficacy which corresponds to that of the untreated control, while an efficacy of 100% means that no disease is observed.

Compared with `CCc1nn(C)c(F)c1C(=O)N1CCCCC1c1ccc(Cl)cc1` (stereo not drawn) [Example 54], `CCc1nn(C)c(F)c1C(=O)N1CCCCC1c1cc(C)cc(C)c1` (stereo not drawn) [Example 11] is higher in Efficacy: 71% for the first, 83% for the second.

Going from `CCC(c1ccccc1)C1CCCCN1C(=O)c1c(C(F)F)nn(C)c1F` (stereo not drawn) [Example 136] to `CCC(c1ccccc1)C1CCCCN1C(=S)c1c(C(F)F)nn(C)c1F` (stereo not drawn) [Example 140], the Efficacy falls from 86% to 71%.

For `Cc1cc(C)cc(C2CCCCN2C(=O)c2c(C)nn(C)c2F)c1` (stereo not drawn) [Example 10], the Efficacy was 88%.

These compounds were tested on Septoria tritici (assay: In vivo preventive test on Septoria tritici (wheat)). Settings: 500 ppm of active ingredient, evaluated 21 days after inoculation.
Procedure: Solvent: 49 parts by weight of N,N-dimethylacetamide Emulsifier: 1 part by weight of alkylaryl polyglycol ether To produce a suitable preparation of active compound, 1 part by weight of active compound or active compound combination is mixed with the stated amounts of solvent and emulsifier, and the concentrate is diluted with water to the desired concentration. To test for preventive activity, young plants are sprayed with the preparation of active compound or active compound combination at the stated rate of application. After the spray coating has been dried, the plants are sprayed with a spore suspension of Septoria tritici. The plants remain for 48 hours in an incubation cabinet at approximately 20° C. and a relative atmospheric humidity of approximately 100% and afterwards for 60 hours at approximately 15° C. in a translucent incubation cabinet at a relative atmospheric humidity of approximately 100%. The plants are placed in the greenhouse at a temperature of approximately 15° C. and a relative atmospheric humidity of approximately 80%. The test is evaluated 21 days after the inoculation. 0% means an efficacy which corresponds to that of the untreated control, while an efficacy of 100% means that no disease is observed.

`CCc1nn(C)c(F)c1C(=O)N1CCCCC1c1ccc(Cl)cc1` (stereo not drawn) [Example 54] and `CCc1nn(C)c(F)c1C(=O)N1CCCCC1c1cc(C)cc(C)c1` (stereo not drawn) [Example 11] are the same in Efficacy: 100% for the first, 100% for the second.

`CCC(c1ccccc1)C1CCCCN1C(=O)c1c(C(F)F)nn(C)c1F` (stereo not drawn) [Example 136] and `CCC(c1ccccc1)C1CCCCN1C(=S)c1c(C(F)F)nn(C)c1F` (stereo not drawn) [Example 140] are the same in Efficacy: 100% for the first, 100% for the second.

For `Cc1cc(C)cc(C2CCCCN2C(=O)c2c(C)nn(C)c2F)c1` (stereo not drawn) [Example 10], the Efficacy was 70%.
